Data from the NIST ThermoML archive (doi:10.1021/je300799f).

Assays:
[1] = Liquid; for mass density: 101.3 kPa, Vibrating tube method; for vapor or sublimation pressure: Ebulliometric method (Recirculating still)
[2] = refractive index (Na D-line) (dimensionless); conditions: 298.15 K; 101.33 kPa; Liquid; Standard Abbe refractometry

CCCC(=O)OCC [ethyl butanoate]
[1]
Conditions	mass density [kg/m3]	vapor or sublimation pressure [kPa]
288.15 K	884.01	–
298.15 K	873.5	–
308.15 K	862.85	–
318.15 K	852.26	–
328.15 K	841.55	–
377.33 K	–	60
378.63 K	–	62.5
379.81 K	–	65
380.99 K	–	67.5
382.1 K	–	70
383.23 K	–	72.5
384.31 K	–	75
385.34 K	–	77.5
386.35 K	–	80
387.34 K	–	82.5
388.31 K	–	85
389.25 K	–	87.5
390.17 K	–	90
391.06 K	–	92.5
391.94 K	–	95
392.81 K	–	97.5
393.66 K	–	100
394.26 K	–	101.32
394.31 K	–	101.32
395.43 K	–	105
397.05 K	–	110
398.57 K	–	115
400.1 K	–	120
401.54 K	–	125
402.99 K	–	130
404.34 K	–	135
405.62 K	–	140
406.96 K	–	145
408.22 K	–	150
409.45 K	–	155
410.61 K	–	160
411.77 K	–	165
412.95 K	–	170
414.05 K	–	175
415.01 K	–	180
416.08 K	–	185
417.14 K	–	190
418.15 K	–	195
419.14 K	–	200
420.12 K	–	205
421.1 K	–	210
422.01 K	–	215
422.94 K	–	220
423.85 K	–	225
424.79 K	–	230
425.67 K	–	235
426.53 K	–	240
427.35 K	–	245
428.2 K	–	250
429.04 K	–	255
429.84 K	–	260
430.65 K	–	265
431.42 K	–	270
432.23 K	–	275
433 K	–	280

Conditions	refractive index
[2]	1.3898
